Molecular target: T1, KCNQ2/3 channels (Homo sapiens, UniProt O43525+O43526)
T1 construct: expressed in transfected cells; host or cells: CHO-K1
Test: Fluorescence assay using a voltage-sensitive dye (fluorimetry)
Format: cell-based
Details: CHO-K1 cells expressing KCNQ2/3; for EC50: agonistic activity; for Emax: relative to retigabine = 100%, negative values = antagonistic, read-out: Fluorimetry % efficacy (I/EC50, retigabine = 100%); for IC50: antagonistic activity
Method: Pharmacological Experiments Fluorescence Assay Using a Voltage-Sensitive Dye
Human CHO-K1 cells expressing KCNQ2/3 channels are cultivated adherently at 37° C., 5% CO2 and 95% humidity in cell culture bottles (e.g. 80 cm^2 TC flasks, Nunc) with DMEM-high glucose (Sigma Aldrich, D7777) including 10% FCS (PAN Biotech, e.g. 3302-P270521) or alternatively MEM Alpha Medium (1×, liquid, Invitrogen, #22571), 10% foetal calf serum (FCS) (Invitrogen, #10270-106, heat-inactivated) and the necessary selection antibiotics.
Before being seeded out for the measurements, the cells are washed with a 1×DPBS buffer without Ca^2+/Mg^2+ (e.g. Invitrogen, #14190-094) and detached from the bottom of the culture vessel by means of Accutase (PAA Laboratories, #L11-007) (incubation with Accutase for 15 min at 37° C.). The cell count then present is determined using a CASY™ cell counter (TCC model, Schärfe System) in order subsequently to apply 20,000 to 30,000 cells/well/100 μl of the described nutrient medium, depending on density optimisation for the individual cell line, to 96-well measuring plates of the Corning™ CellBIND™ type (flat clear-bottom black polystyrene microplates, #3340). Incubation is then carried out for one hour at room temperature, without gassing or adjusting the humidity, followed by incubation for 24 hours at 37° C., 5% CO2 and 95% humidity.
The voltage-sensitive fluorescent dye from the Membrane Potential Assay Kit (Red™ bulk format part R8123 for FLIPR, MDS Analytical Technologies™) is prepared by dissolving the contents of a vessel of Membrane Potential Assay Kit Red Component A in 200 ml of extracellular buffer (ES buffer, 120 mM NaCl, 1 mM KCl, 10 mM HEPES, 2 mM CaCl2, 2 mM MgCl2, 10 mM glucose; pH 7.4). After removal of the nutrient medium, the cells are washed with 200 μl of ES buffer, then covered with a layer of 100 μl of the dye solution prepared above and incubated for 45 min at room temperature with exclusion of light.
The fluorescence measurements are carried out with a BMG Labtech FLUOstar™, BMG Labtech NOVOstar™ or BMG Labtech POLARstar™ instrument (525 nm excitation, 560 nm emission, bottom-read mode). After incubation of the dye, 50 μl of the substances to be tested in the desired concentrations, or 50 μl of ES buffer for control purposes, are introduced into separate cavities of the measuring plate and incubated for 30 min at room temperature whilst being shielded from light. The fluorescence intensity of the dye is then measured for 5 min and the fluorescence value F1 of each well is thus determined at a given, constant time. 15 μl of a […] KCl solution […] are then added to each well. The change in fluorescence is subsequently measured until all relevant measured values have been obtained (mainly […]). At a given time after KCl application, a fluorescence value F2 is determined, in this case at the time of the fluorescence peak.
For calculation, the fluorescence intensity F2 is compared with the fluorescence intensity F1, and the agonistic activity of the target compound on the potassium channel is determined therefrom. F2 and F1 are calculated as follows: […]
In order to determine whether a substance has an agonistic activity,
[formula] is determined by adding to the reaction batch only the buffer solution instead of the substance to be tested, determining the value F1K of the fluorescence intensity, adding the potassium ions as described above and measuring a value F2K of the fluorescence intensity. Then F2K and F1K are calculated as follows: […]
A substance has an agonistic activity on the potassium channel if
Independently of the comparison of
[formula] it is also possible to conclude that a target compound has an agonistic activity if an increase in
[formula] is to be observed as the dosage of the target compound increases.
Calculations of EC50 values are carried out with the aid of Prism v4.0 software (GraphPad Softwares™).

EC50	Emax	IC50	SMILES
95 nM	172%		O=C(CC1CCCCC1)Nc1cccnc1SCCS(=O)(=O)c1ccccc1 [Example 1, N-[2-[2-(Benzenesulfonyl)-ethylsulfanyl]-pyridin-3-yl]-2-cyclohexyl acetamide]
	55%		O=C(Nc1cccnc1SCCS(=O)(=O)c1ccccc1)c1ccccc1 [Example 4, N-[2-[2-(Benzenesulfonyl)-ethylsulfanyl]-pyridin-3-yl]benzamide]
469 nM	129%		O=C(Nc1cccnc1SCCS(=O)(=O)c1ccccc1)c1ccc(F)c(F)c1 [Example 5, N-[2-[2-(Benzenesulfonyl)-ethylsulfanyl]-pyridin-3-yl]-3,4-difluorobenzamide]
424 nM	125%		O=C(Cc1cccs1)Nc1cccnc1SCCS(=O)(=O)c1ccccc1 [Example 7, N-[2-[2-(Benzenesulfonyl)-ethylsulfanyl]-pyridin-3-yl]-2-thiophen-2-yl acetamide]
	-68%	322 nM	Cc1cc(C)cc(C(C)C(=O)Nc2cccnc2SCCS(=O)(=O)c2ccccc2)c1 (stereo not shown) [Example 8, N-[2-[2-(Benzenesulfonyl)-ethylsulfanyl]-pyridin-3-yl]-2-(3,5-dimethylphenyl)propionamide]
55 nM	74%		COc1ccc(CC(=O)Nc2cccnc2SCCS(=O)(=O)c2cccc(C(F)(F)F)c2)cc1 [Example 10, 2-(4-Methoxyphenyl)-N-[2-[2-[[3-(trifluoromethyl)phenyl]sulfonyl]-ethylsulfanyl]-pyridin-3-yl]acetamide]
168 nM	141%		O=C(Cc1ccccc1O)Nc1cccnc1SCCS(=O)(=O)c1cccc(C(F)(F)F)c1 [Example 12, 2-(2-Hydroxyphenyl)-N-[2-[2-[[3-(trifluoromethyl)phenyl]sulfonyl]-ethylsulfanyl]-pyridin-3-yl]acetamide]
	46%		O=C(Cc1ccc(O)cc1)Nc1cccnc1SCCS(=O)(=O)c1cccc(C(F)(F)F)c1 [Example 13, 2-(4-Hydroxyphenyl)-N-[2-[2-[[3-(trifluoromethyl)phenyl]sulfonyl]-ethylsulfanyl]-pyridin-3-yl]acetamide]
45 nM	167%		O=C(CC1CCCC1)Nc1cccnc1SCCS(=O)(=O)c1cccc(C(F)(F)F)c1 [Example 14, 2-Cyclopentyl-N-[2-[2-[[3-(trifluoromethyl)phenyl]sulfonyl]-ethylsulfanyl]-pyridin-3-yl]acetamide]
180 nM	97%		O=C(Cc1cccs1)Nc1cccnc1SCCSc1cccc(C(F)(F)F)c1 [Example 20, 2-Thiophen-2-yl-N-[2-[2-[[3-(trifluoromethyl)phenyl]sulfanyl]-ethylsulfanyl]-pyridin-3-yl]acetamide]
83 nM	152%		O=C(Cc1cccs1)Nc1cccnc1SCCSc1ccccc1 [Example 21, N-[2-(2-Phenylsulfanyl-ethylsulfanyl)-pyridin-3-yl]-2-thiophen-2-yl acetamide]
153 nM	84%		O=C(Cc1ccc2ccccc2c1)Nc1cccnc1SCCS(=O)(=O)c1cccc(C(F)(F)F)c1 [Example 24, 2-Naphthalen-2-yl-N-[2-[2-[[3-(trifluoromethyl)phenyl]sulfonyl]-ethylsulfanyl]-pyridin-3-yl]acetamide]
123 nM	82%		O=C(CCc1cccs1)Nc1cccnc1SCCS(=O)(=O)c1cccc(C(F)(F)F)c1 [Example 26, 3-Thiophen-2-yl-N-[2-[2-[[3-(trifluoromethyl)phenyl]sulfonyl]-ethylsulfanyl]-pyridin-3-yl]propionamide]
312 nM	108%		O=C(CC1CCCCC1)Nc1cccnc1SCCSc1cccc(C(F)(F)F)c1 [Example 29, 2-Cyclohexyl-N-[2-[2-[[3-(trifluoromethyl)phenyl]sulfanyl]-ethylsulfanyl]-pyridin-3-yl]acetamide]

The remaining lines, values behind:

SMILES	EC50	Emax	IC50
O=C(CC1CCCCC1)Nc1cccnc1SCCS(=O)(=O)c1cccc(C(F)(F)F)c1 [Example 2, 2-Cyclohexyl-N-[2-[2-[[3-(trifluoromethyl)phenyl]sulfonyl]-ethylsulfanyl]-pyridin-3-yl]acetamide]	27 nM	142%	
O=C(CCC1CCCCC1)Nc1cccnc1SCCS(=O)(=O)c1ccccc1 [Example 6, N-[2-[2-(Benzenesulfonyl)-ethylsulfanyl]-pyridin-3-yl]-3-cyclohexyl propionamide]	76 nM	225%	
COc1ccccc1CC(=O)Nc1cccnc1SCCS(=O)(=O)c1cccc(C(F)(F)F)c1 [Example 9, 2-(2-Methoxyphenyl)-N-[2-[2-[[3-(trifluoromethyl)phenyl]sulfonyl]-ethylsulfanyl]-pyridin-3-yl]acetamide]		-45%	192 nM
COc1cccc(CC(=O)Nc2cccnc2SCCS(=O)(=O)c2cccc(C(F)(F)F)c2)c1 [Example 11, 2-(3-Methoxyphenyl)-N-[2-[2-[[3-(trifluoromethyl)phenyl]sulfonyl]-ethylsulfanyl]-pyridin-3-yl]acetamide]	588 nM	109%	
O=C(Nc1cccnc1SCCS(=O)(=O)c1cccc(C(F)(F)F)c1)c1cccs1 [Example 18, N-[2-[2-[[3-(Trifluoromethyl)phenyl]sulfonyl]-ethylsulfanyl]-pyridin-3-yl]-thiophene-2-carboxylic acid amide]	457 nM	43%	
O=C(Nc1cccnc1SCCS(=O)(=O)c1cccc(C(F)(F)F)c1)C1CCCCC1 [Example 19, N-[2-[2-[[3-(Trifluoromethyl)phenyl]sulfonyl]-ethylsulfanyl]-pyridin-3-yl]-cyclohexane carboxylic acid amide]		-43%	
O=C(Cc1cccs1)Nc1cccnc1SCCOc1cccc(C(F)(F)F)c1 [Example 22, 2-Thiophen-2-yl-N-[2-[2-[3-(trifluoromethyl)-phenoxy]-ethylsulfanyl]-pyridin-3-yl]acetamide]	732 nM	155%	
O=C(Cc1cccs1)Nc1cccnc1SCCCc1cccc(C(F)(F)F)c1 [Example 23, 2-Thiophen-2-yl-N-[2-[3-[3-(trifluoromethyl)phenyl]-propylsulfanyl]-pyridin-3-yl]acetamide]	157 nM	165%	
O=C(CCCc1ccccc1)Nc1cccnc1SCCS(=O)(=O)c1cccc(C(F)(F)F)c1 [Example 25, 4-Phenyl-N-[2-[2-[[3-(trifluoromethyl)phenyl]sulfonyl]-ethylsulfanyl]-pyridin-3-yl]-butyramide]	71 nM	170%	
O=C(CCc1ccccc1)Nc1cccnc1SCCS(=O)(=O)c1cccc(C(F)(F)F)c1 [Example 27, 3-Phenyl-N-[2-[2-[[3-(trifluoromethyl)phenyl]sulfonyl]-ethylsulfanyl]-pyridin-3-yl]propionamide]	208 nM	112%	
O=C(CCC1CCCC1)Nc1cccnc1SCCS(=O)(=O)c1cccc(C(F)(F)F)c1 [Example 28, 3-Cyclopentyl-N-[2-[2-[[3-(trifluoromethyl)phenyl]sulfonyl]-ethylsulfanyl]-pyridin-3-yl]propionamide]	277 nM	152%	
O=C(/C=C/c1ccc(F)cc1)Nc1cccnc1SCCS(=O)(=O)c1cccc(C(F)(F)F)c1 [Example 31, (E)-3-(4-Fluorophenyl)-N-[2-[2-[[3-(trifluoromethyl)phenyl]sulfonyl]-ethylsulfanyl]-pyridin-3-yl]acrylamide]	841 nM	109%	

Source: patent US8247573B2, “Substituted N-(2-mercaptopyridin-3-yl)amides as KCNQ2/3 modulators” (Gruenenthal GmbH, priority 2009, dated 2012)
